Reference: ChEMBL document CHEMBL1129711, “Nonpeptide GPIIb/IIIa inhibitors. 10. Centrally constrained alpha-sulfonamides are potent inhibitors of platelet aggregation” (Bioorg Med Chem Lett, 1996)
pIC50, pKd: −log10 of the molar value.

How the values were obtained:
[1] = target: T1, Integrin alpha-IIb/beta-3 (Homo sapiens, UniProt P05106+P08514); assay: Binding affinity against alpha IIb beta-3 integrin in the presence of L-736622.; format: protein-complex assay
Target sequence in this assay (P05106 27-788 limits assumed): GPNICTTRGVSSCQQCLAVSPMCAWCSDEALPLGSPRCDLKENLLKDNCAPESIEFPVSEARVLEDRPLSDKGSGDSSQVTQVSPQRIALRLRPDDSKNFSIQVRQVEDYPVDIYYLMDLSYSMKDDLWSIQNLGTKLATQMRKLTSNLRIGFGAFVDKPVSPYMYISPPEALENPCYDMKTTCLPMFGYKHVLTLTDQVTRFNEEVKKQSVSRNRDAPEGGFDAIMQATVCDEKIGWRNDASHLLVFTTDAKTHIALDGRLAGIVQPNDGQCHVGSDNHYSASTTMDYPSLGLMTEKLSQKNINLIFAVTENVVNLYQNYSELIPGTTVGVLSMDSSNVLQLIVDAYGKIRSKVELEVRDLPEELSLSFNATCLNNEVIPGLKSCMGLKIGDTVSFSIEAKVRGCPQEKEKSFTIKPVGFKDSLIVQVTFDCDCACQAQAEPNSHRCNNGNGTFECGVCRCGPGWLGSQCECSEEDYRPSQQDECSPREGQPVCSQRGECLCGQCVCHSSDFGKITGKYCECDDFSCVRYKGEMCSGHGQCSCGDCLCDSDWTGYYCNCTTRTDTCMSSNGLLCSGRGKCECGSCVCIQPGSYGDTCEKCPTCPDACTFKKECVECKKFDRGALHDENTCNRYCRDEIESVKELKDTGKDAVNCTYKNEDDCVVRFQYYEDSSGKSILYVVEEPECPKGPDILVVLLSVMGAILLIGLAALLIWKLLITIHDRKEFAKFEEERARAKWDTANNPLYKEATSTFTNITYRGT
Target sequence in this assay (P08514 32-887 limits assumed): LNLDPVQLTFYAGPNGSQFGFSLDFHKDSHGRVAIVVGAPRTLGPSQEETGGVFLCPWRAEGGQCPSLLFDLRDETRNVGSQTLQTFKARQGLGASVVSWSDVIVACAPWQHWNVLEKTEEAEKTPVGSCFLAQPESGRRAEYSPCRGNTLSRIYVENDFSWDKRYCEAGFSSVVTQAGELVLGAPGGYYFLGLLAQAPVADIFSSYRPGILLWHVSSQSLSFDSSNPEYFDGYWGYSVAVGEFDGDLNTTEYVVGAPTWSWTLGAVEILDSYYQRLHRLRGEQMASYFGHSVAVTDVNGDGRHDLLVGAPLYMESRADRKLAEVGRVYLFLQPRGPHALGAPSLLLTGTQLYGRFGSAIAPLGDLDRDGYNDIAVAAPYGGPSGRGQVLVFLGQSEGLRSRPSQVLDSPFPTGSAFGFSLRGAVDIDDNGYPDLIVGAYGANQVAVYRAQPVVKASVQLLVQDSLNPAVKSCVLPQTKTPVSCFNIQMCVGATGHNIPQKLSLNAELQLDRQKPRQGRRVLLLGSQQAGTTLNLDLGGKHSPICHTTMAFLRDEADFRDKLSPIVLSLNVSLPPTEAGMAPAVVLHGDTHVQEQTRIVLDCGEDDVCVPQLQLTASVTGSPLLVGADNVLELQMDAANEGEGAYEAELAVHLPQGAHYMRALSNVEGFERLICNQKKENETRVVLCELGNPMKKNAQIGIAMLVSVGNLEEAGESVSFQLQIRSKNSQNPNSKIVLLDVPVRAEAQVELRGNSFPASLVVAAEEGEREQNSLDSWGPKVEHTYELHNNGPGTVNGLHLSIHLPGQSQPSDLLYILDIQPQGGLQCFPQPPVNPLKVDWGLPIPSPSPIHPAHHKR
Target sequence in this assay (P08514 891-1039 limits assumed): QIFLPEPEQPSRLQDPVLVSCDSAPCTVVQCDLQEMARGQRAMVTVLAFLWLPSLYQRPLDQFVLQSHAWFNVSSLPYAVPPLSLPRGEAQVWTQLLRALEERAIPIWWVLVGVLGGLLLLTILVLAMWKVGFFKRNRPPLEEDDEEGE

[2] = target: T1, Integrin alpha-IIb/beta-3; assay: Binding affinity against alpha IIb beta-3 integrin by [125I]-L-692,884 displacement.; format: protein-complex assay
Homo sapiens = species: Homo sapiens; assay: In vitro inhibition of ADP-induced human platelet aggregation.; format: functional

pKd [1] | ED50 [2] | pIC50 (Homo sapiens) | Compound
8.36 | – | – | CCCCS(=O)(=O)N[C@@H](CNC(=O)c1ccc2c(c1)C(=O)N(CCC1CCNCC1)C2)C(=O)O (stereo in doubt; 13) [listing 1 of 2 here]
8.12 | 0.88 nM | 8.05 | CCCCCS(=O)(=O)N[C@@H](CNC(=O)c1ccc2c(c1)C(=O)N(CCC1CCNCC1)C2)C(=O)O
7.00 | – | – | O=C(O)CCNC(=O)c1ccc2c(c1)C(=O)N(CCC1CCNCC1)C2
8.19 | 0.83 nM | 7.82 | O=C(NC[C@H](NS(=O)(=O)c1ccccc1C(=O)O)C(=O)O)c1ccc2c(c1)C(=O)N(CCC1CCNCC1)C2
8.06 | – | 7.85 | CCCCS(=O)(=O)N[C@@H](CNC(=O)c1ccc2c(c1)C(=O)N(CCC1CCNCC1)C2)C(=O)O (stereo in doubt) [listing 1 of 2 here]
8.11 | 0.53 nM | 8.15 | O=C(NC[C@H](NS(=O)(=O)c1cccs1)C(=O)O)c1ccc2c(c1)C(=O)N(CCC1CCNCC1)C2
7.82 | 2 nM | 8.15 | O=C(O)c1ccc(S(=O)(=O)N[C@@H](CNC(=O)c2ccc3c(c2)C(=O)N(CCC2CCNCC2)C3)C(=O)O)cc1
8.44 | 0.38 nM | 7.82 | O=C(NC[C@H](NS(=O)(=O)c1cccnc1)C(=O)O)c1ccc2c(c1)C(=O)N(CCC1CCNCC1)C2
8.19 | 4.2 nM | 7.89 | CCCCCC(=O)N[C@@H](CNC(=O)c1ccc2c(c1)C(=O)N(CCC1CCNCC1)C2)C(=O)O
– | 0.97 nM | 7.96 | CCCCS(=O)(=O)N[C@@H](Cc1ccc(OCCCCC2CCNCC2)cc1)C(=O)O [TIROFIBAN]
8.43 | 0.33 nM | 8.10 | O=C(NC[C@H](NS(=O)(=O)c1ccccc1)C(=O)O)c1ccc2c(c1)C(=O)N(CCC1CCNCC1)C2
7.68 | 2.8 nM | 7.72 | CCCCNS(=O)(=O)N[C@@H](CNC(=O)c1ccc2c(c1)C(=O)N(CCC1CCNCC1)C2)C(=O)O
8.29 | 1.1 nM | 8.10 | CCOCCS(=O)(=O)N[C@@H](CNC(=O)c1ccc2c(c1)C(=O)N(CCC1CCNCC1)C2)C(=O)O
8.12 | 1.2 nM | 8.05 | CC(C)CS(=O)(=O)N[C@@H](CNC(=O)c1ccc2c(c1)C(=O)N(CCC1CCNCC1)C2)C(=O)O
– | 5.5 nM | – | CCCCS(=O)(=O)N[C@@H](CNC(=O)c1ccc2c(c1)C(=O)N(CCC1CCNCC1)C2)C(=O)O (stereo in doubt) [listing 2 of 2 here]
8.16 | 1.4 nM | 7.80 | CCCCNC(=O)N[C@@H](CNC(=O)c1ccc2c(c1)C(=O)N(CCC1CCNCC1)C2)C(=O)O
8.22 | 1.2 nM | 8.00 | O=C(NCc1ccccc1)N[C@@H](CNC(=O)c1ccc2c(c1)C(=O)N(CCC1CCNCC1)C2)C(=O)O
7.92 | 1.6 nM | 8.40 | O=C(NC[C@H](NS(=O)(=O)Cc1ccccc1)C(=O)O)c1ccc2c(c1)C(=O)N(CCC1CCNCC1)C2
8.13 | 3.4 nM | 7.85 | CS(=O)(=O)N[C@@H](CNC(=O)c1ccc2c(c1)C(=O)N(CCC1CCNCC1)C2)C(=O)O
– | 1.3 nM | – | CCCCS(=O)(=O)N[C@@H](CNC(=O)c1ccc2c(c1)C(=O)N(CCC1CCNCC1)C2)C(=O)O (stereo in doubt; 13) [listing 2 of 2 here]
